This is an account of results in ChEMBL document CHEMBL1201862, “PubChem BioAssay data set” (2004).

The structures appear in SMILES notation. Activity calls are given as the source filed them.

In experiment [1] the target is Megakaryocyte-associated tyrosine-protein kinase (Homo sapiens, UniProt P42679). The experiment is classed as functional.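 Further: affinity measured as one member of a kinase panel (Navigating the Kinome) against MATK.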
Experiment [2] addresses Ribosomal protein S6 kinase beta-1 (Homo sapiens, UniProt P23443). It is filed as functional.
Experiment [3] addresses Serine/threonine-protein kinase 17A (Homo sapiens, UniProt Q9UEE5). The experiment is classed as functional.
The target in experiment [4] is MAP kinase-activated protein kinase 2 (Homo sapiens, UniProt P49137). The experiment is classed as functional.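 Further: measured as one member of a kinome-wide kinase panel.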
Chain of MAP kinase-activated protein kinase 2 (P49137 whole entry): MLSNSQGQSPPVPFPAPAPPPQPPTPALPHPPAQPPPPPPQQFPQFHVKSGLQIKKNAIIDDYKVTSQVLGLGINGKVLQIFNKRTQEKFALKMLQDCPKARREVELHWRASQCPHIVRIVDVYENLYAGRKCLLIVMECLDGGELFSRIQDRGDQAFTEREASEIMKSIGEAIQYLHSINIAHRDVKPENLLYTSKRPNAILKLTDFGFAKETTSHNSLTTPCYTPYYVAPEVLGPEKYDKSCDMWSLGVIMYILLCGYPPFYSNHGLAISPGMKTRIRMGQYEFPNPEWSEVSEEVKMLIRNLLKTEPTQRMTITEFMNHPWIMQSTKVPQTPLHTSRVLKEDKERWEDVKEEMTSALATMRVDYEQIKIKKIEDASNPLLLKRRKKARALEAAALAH
Experiment [5] deals with Tyrosine-protein kinase ITK/TSK (Homo sapiens, UniProt Q08881). The experiment is classed as functional.
Chain of Tyrosine-protein kinase ITK/TSK (Q08881 whole entry): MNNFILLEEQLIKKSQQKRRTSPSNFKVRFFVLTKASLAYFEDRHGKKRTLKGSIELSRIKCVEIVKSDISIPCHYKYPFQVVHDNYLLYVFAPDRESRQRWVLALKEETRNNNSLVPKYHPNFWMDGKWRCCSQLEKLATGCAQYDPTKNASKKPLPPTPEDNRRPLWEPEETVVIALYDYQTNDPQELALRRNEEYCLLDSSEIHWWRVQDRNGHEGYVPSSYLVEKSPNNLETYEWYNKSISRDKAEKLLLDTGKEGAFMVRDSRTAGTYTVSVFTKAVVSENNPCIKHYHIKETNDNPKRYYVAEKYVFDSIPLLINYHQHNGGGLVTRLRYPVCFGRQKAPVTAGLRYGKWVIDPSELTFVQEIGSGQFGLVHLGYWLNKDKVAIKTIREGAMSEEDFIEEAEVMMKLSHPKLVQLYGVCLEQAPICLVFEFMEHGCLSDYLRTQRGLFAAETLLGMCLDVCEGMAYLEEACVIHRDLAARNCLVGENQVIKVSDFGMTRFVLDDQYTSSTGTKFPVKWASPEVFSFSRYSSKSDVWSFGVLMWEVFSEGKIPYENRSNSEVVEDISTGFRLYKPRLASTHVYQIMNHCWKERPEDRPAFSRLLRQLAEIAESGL
Experiment [6] deals with Proto-oncogene tyrosine-protein kinase Src (Homo sapiens, UniProt P12931). It is filed as functional.
In experiment [7] the target is Mitogen-activated protein kinase 1 (Homo sapiens, UniProt P28482). It is filed as functional.
Chain of Mitogen-activated protein kinase 1 (P28482 whole entry): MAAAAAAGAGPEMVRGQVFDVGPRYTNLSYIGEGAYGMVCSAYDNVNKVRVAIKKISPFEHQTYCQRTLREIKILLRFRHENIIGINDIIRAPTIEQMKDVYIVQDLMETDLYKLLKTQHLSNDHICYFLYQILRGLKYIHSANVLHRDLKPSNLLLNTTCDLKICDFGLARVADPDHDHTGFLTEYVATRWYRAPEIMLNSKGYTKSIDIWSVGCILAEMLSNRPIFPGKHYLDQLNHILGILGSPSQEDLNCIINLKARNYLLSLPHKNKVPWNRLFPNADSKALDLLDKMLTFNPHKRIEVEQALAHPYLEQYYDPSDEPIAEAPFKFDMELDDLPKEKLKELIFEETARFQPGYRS
Experiment [8] has as its target Maternal embryonic leucine zipper kinase (Homo sapiens, UniProt Q14680). It is filed as functional.
The target in experiment [9] is RAC-alpha serine/threonine-protein kinase (Homo sapiens, UniProt P31749). The experiment is classed as functional.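 Further: AKT1 affinity measured as one member of a kinome-wide kinase profiling panel.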
Chain of RAC-alpha serine/threonine-protein kinase (P31749 whole entry): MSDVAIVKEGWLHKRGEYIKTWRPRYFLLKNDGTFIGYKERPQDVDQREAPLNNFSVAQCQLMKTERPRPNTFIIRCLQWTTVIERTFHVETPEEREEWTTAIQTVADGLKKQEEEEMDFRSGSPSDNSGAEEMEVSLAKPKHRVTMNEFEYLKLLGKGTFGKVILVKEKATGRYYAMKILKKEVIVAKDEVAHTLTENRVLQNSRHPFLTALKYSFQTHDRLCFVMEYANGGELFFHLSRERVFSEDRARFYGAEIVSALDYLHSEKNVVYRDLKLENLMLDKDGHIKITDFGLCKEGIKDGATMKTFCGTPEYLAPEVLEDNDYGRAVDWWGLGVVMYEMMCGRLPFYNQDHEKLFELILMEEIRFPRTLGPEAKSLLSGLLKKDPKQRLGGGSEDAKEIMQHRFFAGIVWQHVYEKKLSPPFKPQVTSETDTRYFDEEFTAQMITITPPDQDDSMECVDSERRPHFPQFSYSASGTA
Experiment [10] deals with Mitogen-activated protein kinase kinase kinase kinase 5 (Homo sapiens, UniProt Q9Y4K4). The experiment is classed as functional.
Chain of Mitogen-activated protein kinase kinase kinase kinase 5 (Q9Y4K4 whole entry): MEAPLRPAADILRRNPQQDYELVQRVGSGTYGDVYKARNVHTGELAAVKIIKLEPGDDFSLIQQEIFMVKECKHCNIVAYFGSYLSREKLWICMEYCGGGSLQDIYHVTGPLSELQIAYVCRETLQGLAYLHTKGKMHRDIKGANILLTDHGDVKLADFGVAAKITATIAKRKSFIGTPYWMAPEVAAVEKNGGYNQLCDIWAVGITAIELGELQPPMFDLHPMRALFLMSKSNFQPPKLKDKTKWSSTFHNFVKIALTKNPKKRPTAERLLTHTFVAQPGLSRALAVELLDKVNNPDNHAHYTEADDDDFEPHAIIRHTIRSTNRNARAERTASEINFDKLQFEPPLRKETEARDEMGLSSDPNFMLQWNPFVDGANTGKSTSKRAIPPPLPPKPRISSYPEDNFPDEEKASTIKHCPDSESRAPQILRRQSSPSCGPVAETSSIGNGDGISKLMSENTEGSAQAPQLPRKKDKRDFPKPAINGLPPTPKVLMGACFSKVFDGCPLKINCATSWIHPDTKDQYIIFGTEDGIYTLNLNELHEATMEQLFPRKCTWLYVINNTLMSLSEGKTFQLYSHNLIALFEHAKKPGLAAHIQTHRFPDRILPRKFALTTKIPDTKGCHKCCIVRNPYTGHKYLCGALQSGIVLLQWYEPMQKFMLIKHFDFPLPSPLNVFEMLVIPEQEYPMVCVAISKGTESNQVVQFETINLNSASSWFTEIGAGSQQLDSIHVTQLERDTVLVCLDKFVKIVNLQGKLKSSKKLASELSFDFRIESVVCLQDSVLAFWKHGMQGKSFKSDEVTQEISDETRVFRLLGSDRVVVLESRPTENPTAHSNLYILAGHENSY
Experiment [11] has as its target T1, Sentrin-specific protease 7 (Homo sapiens, UniProt Q9BQF6).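 Further: Luminescence-based dose-response confirmation of ultra-high-throughput screening hits, measuring inhibition of SENP7.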
T1 sequence (Q9BQF6 whole entry): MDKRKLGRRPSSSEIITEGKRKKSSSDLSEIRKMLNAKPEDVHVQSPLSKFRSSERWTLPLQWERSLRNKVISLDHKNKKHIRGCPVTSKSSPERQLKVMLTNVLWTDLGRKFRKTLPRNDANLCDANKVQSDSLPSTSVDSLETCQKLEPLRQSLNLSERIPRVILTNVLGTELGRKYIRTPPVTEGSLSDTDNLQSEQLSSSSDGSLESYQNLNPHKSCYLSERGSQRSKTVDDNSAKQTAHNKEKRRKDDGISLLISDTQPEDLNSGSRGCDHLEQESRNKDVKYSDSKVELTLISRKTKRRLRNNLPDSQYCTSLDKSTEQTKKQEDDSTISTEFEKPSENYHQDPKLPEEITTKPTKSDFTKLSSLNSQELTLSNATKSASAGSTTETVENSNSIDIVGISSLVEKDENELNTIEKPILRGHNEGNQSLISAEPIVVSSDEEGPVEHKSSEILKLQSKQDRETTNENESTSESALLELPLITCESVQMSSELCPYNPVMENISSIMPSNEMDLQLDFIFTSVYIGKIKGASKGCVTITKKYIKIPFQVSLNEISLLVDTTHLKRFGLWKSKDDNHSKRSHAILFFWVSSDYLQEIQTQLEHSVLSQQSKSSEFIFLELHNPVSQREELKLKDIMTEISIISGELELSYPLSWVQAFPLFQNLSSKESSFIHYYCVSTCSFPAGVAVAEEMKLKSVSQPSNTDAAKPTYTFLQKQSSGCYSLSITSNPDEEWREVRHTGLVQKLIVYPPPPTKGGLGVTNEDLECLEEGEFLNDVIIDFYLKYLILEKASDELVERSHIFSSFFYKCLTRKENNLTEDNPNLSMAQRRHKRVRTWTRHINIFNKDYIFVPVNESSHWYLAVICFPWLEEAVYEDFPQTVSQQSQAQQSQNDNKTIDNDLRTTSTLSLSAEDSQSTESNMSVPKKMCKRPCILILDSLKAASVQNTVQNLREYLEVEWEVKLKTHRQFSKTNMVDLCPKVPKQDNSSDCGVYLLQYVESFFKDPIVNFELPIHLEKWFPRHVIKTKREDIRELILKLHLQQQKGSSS
The experiment is classed as functional.

Experiment [12] addresses T2, Sentrin-specific protease 6 (Homo sapiens, UniProt Q9GZR1).
T2 sequence (Q9GZR1 whole entry): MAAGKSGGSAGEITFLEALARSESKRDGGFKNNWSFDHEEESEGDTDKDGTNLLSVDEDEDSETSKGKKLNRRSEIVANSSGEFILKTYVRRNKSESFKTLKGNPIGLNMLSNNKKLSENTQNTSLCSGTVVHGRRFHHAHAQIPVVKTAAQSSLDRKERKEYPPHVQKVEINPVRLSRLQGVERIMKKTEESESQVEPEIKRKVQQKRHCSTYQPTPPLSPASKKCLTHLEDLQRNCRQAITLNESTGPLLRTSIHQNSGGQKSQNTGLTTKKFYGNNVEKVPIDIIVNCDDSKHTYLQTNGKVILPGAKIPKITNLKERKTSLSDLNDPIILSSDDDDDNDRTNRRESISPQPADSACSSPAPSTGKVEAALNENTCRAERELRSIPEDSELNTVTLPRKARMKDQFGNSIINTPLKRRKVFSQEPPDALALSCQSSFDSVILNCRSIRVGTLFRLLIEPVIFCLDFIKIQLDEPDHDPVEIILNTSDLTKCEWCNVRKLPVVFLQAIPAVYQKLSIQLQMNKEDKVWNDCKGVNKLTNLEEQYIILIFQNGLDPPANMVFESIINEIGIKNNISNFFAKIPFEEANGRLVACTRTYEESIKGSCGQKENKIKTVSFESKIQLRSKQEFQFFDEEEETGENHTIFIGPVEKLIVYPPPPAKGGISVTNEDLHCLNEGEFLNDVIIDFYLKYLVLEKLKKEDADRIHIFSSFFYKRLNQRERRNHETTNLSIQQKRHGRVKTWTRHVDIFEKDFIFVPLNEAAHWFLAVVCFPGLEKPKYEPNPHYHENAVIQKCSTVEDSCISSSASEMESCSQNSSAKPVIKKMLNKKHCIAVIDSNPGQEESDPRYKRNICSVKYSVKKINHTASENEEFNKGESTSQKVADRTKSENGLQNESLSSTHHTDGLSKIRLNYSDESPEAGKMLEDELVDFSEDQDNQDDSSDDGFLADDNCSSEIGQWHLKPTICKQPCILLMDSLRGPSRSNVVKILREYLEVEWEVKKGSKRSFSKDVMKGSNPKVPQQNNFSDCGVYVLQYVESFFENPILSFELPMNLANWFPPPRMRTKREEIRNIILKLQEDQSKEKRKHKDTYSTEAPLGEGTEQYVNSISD
It is filed as functional.

Experiment [13] has as its target Platelet-derived growth factor receptor beta (Homo sapiens, UniProt P09619). It is filed as functional.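 Further: value comes from a kinome panel, with PDGFRB tested as one panel member.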
Experiment [14] has as its target Inhibitor of nuclear factor kappa-B kinase subunit epsilon (Homo sapiens, UniProt Q14164). Put plainly: Navigating the Kinome. Panel member name: IKBKE. The experiment is classed as functional.
For a further experiment, the system named is HeLa. The experiment is described as follows: HeLa cell cytotoxicity, dose response, cytotoxicity control, 24 h, cherry-picked samples (AID 504726).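 Further: potency for cytotoxicity as loss of luminescence signal.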 It is filed as functional, cell-based. The following applies: Homo sapiens.

Chain of Serine/threonine-protein kinase 17A (Q9UEE5 whole entry): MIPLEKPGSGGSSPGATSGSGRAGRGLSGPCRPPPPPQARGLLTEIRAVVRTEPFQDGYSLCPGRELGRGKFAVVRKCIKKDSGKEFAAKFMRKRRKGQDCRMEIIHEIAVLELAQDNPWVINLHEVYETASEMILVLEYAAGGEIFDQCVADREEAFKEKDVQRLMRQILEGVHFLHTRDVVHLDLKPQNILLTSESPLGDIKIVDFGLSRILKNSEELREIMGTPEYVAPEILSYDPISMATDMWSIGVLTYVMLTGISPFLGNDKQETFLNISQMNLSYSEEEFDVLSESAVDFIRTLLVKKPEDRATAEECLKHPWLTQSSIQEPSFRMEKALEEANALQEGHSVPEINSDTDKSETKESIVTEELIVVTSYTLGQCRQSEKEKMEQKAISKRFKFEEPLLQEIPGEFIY
Chain of Maternal embryonic leucine zipper kinase (Q14680 whole entry): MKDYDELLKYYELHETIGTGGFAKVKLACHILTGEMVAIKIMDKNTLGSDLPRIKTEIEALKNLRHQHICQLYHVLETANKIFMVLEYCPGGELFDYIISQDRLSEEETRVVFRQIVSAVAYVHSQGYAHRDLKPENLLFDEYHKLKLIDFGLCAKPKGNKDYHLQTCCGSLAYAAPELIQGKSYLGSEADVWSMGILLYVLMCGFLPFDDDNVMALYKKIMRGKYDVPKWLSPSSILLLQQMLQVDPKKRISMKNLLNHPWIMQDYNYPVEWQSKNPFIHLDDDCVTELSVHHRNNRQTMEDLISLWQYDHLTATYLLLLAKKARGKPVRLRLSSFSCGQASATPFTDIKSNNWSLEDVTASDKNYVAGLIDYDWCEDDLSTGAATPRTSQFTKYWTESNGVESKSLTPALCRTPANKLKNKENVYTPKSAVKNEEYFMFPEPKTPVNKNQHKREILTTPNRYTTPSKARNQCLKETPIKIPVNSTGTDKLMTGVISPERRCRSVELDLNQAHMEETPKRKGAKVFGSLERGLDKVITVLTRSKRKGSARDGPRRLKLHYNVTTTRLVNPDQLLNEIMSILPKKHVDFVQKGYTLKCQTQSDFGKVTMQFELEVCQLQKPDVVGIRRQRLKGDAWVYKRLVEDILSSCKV
Chain of Ribosomal protein S6 kinase beta-1 (P23443 whole entry): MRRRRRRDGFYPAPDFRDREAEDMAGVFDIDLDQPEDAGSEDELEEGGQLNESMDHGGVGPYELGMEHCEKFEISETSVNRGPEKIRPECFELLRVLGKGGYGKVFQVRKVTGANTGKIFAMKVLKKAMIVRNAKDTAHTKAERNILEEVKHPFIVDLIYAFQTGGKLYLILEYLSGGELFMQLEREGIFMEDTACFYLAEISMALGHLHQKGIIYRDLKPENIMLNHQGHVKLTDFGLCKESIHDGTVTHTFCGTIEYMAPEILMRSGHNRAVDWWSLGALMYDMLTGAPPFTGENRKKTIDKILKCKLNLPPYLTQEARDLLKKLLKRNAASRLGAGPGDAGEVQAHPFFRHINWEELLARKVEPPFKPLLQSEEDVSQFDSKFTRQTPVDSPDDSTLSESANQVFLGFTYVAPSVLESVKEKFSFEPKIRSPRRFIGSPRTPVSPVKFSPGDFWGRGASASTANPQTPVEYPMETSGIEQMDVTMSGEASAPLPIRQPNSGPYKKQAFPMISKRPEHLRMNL
Chain of Inhibitor of nuclear factor kappa-B kinase subunit epsilon (Q14164 whole entry): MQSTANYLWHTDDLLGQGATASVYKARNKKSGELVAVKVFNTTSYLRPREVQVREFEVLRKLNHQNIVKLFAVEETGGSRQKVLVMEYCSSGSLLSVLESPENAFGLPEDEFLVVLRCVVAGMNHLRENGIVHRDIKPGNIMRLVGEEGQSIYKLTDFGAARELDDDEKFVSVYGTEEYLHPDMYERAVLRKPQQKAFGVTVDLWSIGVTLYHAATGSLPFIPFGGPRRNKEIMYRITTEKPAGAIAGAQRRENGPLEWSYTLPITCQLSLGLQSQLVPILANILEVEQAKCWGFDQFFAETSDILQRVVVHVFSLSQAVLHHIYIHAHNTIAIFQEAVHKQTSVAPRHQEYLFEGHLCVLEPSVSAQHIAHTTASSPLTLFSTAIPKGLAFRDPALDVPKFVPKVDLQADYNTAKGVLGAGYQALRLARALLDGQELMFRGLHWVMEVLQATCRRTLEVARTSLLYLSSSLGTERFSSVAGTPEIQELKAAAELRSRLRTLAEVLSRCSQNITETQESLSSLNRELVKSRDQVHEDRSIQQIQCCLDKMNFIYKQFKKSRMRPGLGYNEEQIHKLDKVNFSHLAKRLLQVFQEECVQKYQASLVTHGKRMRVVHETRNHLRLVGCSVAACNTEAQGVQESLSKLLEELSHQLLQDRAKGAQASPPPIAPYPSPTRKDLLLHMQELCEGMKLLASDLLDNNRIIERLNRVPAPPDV

On to `OC1CCC(Nc2nc(Cl)cc(-c3c[nH]c4ncccc34)n2)CC1` (stereo not drawn), for which the Ki in experiment [1] was > 2 µM (inactive); in experiment [2], 0.1 µM (active); in [3], 0.0398 µM (active); in [4], 3.98 µM (active); in [5] it was 0.398 µM (active); in [6] it was > 2 µM (inactive). Besides, the Ki in experiment [7] is 0.0501 µM (active); in experiment [8] it was 0.00501 µM (active); in experiment [9], 2 µM (active); in [10], 0.0794 µM (active). In addition, the pKi in experiment [2] came out at 7; in experiment [3], 7.4; in [4], 5.4; in experiment [5] it was 6.4; in experiment [7], 7.3; in [8], 8.3. Further, the pKi was found to be 5.7 in experiment [9] and 7.1 in [10].
For the molecule `O=C(COC(=O)c1ccc([N+](=O)[O-])s1)Nc1ccc(F)cc1`, the IC50 in experiment [11] is 6.29 µM (active); in [12] it was 3.82 µM (active).
Regarding `COc1cccc(CNC(=O)c2cnc(-c3ccncc3)nc2)c1`, the Ki in experiment [13] is > 2 µM (inactive); in [14], > 3.16 µM (inactive).
In the case of `CCN(CC)CCCC(C)n1c2nc(=O)[nH]c(=O)c-2nc2cc(Cl)ccc21` (stereo not drawn), in the experiment on HeLa, the AC50 is 8.49 µM (active).

By Ki is commonly meant a dissociation constant, usually derived from enzyme kinetics or from competition with a known ligand. Broadly, the pKi is the negative decadic logarithm of the Ki, by convention in mol/L. Higher therefore signals a low Ki. One may read the IC50 as the concentration that inhibits the measured activity by half. As usually defined, the AC50 is the concentration giving half of the maximal activity seen.
